These results are taken from patent publication US10975119B2, “Selective cysteine protease inhibitors and uses thereof” (Genesis Technologies Limited, priority 2011, dated 2021).

pIC50: −log10 of the molar value. Read-outs that look alike come from different tables or passages of the source.

Holding throughout (type): biochemical
In test [1] the target is T1, Caspase-1 (Homo sapiens, UniProt P29466).
T1 construct: mixing the compounds with the respective active caspases; purchased BioVision K151-100
T1 sequence (P29466 120-297 limits assumed): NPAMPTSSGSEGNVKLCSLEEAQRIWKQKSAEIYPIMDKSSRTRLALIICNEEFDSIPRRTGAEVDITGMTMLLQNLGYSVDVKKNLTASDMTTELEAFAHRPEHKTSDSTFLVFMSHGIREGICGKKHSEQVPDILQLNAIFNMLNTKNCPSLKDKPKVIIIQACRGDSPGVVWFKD
T1 sequence (P29466 317-404 limits assumed): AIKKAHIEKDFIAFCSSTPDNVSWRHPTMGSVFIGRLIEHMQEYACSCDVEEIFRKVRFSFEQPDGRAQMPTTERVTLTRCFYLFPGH
Briefly: Caspase-1 inhibitor screening assay (BioVision kit, YVAD-AFC). To be noted: for inhibition at 10 µM: read-out: % Inhibition at 10 uM Casp1; for inhibition at 100 µM: read-out: % Inhibition at 100 uM Casp1; for pIC50: read-out: IC50 Casp1. The method, boiled down: (§1)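 Fluorometric read-out of free AFC released from the caspase-specific synthetic substrate. IC50 from concentration series, sometimes narrower.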

The target of test [2] is T2, Caspase-2 (Homo sapiens, UniProt P42575).
T2 construct: mixing the compounds with the respective active caspases; purchased BioVision K152-100
T2 sequence (P42575 170-325 limits assumed): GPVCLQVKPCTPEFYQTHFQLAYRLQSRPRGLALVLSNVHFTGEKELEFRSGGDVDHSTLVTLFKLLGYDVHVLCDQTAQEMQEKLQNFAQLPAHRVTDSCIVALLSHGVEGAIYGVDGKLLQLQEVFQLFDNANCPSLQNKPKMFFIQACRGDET
T2 sequence (P42575 334-452 limits assumed): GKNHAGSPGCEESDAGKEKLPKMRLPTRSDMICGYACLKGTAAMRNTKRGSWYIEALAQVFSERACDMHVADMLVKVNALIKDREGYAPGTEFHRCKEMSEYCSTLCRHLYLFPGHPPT
Kind of test: Caspase-2 inhibitor screening assay (BioVision kit, VDVAD-AFC). As to conditions: for inhibition at 10 µM: read-out: % Inhibition at 10 uM Casp2; for inhibition at 100 µM: read-out: % Inhibition at 100 uM Casp2; for pIC50: read-out: IC50 Casp2. The procedure, abridged: as §1

Test [3] concerns the target T3, Caspase-3 (Homo sapiens, UniProt P42574).
T3 construct: mixing the compounds with the respective active caspases; purchased BioVision K153-100
T3 sequence (P42574 29-175 limits assumed): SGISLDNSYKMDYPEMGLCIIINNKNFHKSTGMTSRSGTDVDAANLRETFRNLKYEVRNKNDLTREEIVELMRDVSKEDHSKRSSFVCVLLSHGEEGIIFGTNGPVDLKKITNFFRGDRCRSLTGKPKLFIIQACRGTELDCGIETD
T3 sequence (P42574 176-277 limits assumed): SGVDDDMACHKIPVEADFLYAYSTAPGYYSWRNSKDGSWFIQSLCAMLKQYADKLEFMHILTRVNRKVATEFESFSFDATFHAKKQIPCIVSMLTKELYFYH
Kind of test: Caspase-3 inhibitor screening assay (BioVision kit, DEVD-AFC). As to conditions: for inhibition at 10 µM: read-out: % Inhibition at 10 uM Casp3; for inhibition at 100 µM: read-out: % Inhibition at 100 uM Casp3. The method, boiled down: as §1

Test [4] has as its target T4, Caspase-7 (Homo sapiens, UniProt P55210).
T4 construct: mixing the compounds with the respective active caspases; purchased BioVision K157-100
T4 sequence (P55210 24-198 limits assumed): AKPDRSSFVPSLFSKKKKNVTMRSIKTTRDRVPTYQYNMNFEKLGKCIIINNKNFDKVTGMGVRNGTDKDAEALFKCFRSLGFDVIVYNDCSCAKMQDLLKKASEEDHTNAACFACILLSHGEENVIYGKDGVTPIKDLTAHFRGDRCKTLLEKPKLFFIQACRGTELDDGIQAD
T4 sequence (P55210 207-303 limits assumed): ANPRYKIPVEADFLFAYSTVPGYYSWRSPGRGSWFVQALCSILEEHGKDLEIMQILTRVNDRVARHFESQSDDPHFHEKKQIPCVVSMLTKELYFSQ
Kind of test: Caspase-7 inhibitor screening assay (BioVision kit, DEVD-AFC). As to conditions: for inhibition at 10 µM: read-out: % Inhibition at 10 uM Casp7; for inhibition at 100 µM: read-out: % Inhibition at 100 uM Casp7; for pIC50: read-out: IC50 Casp7. The procedure, abridged:
as §1

Test [5] addresses T5, Caspase-8 (Homo sapiens, UniProt Q14790).
T5 construct: mixing the compounds with the respective active caspases; purchased BioVision K158-100
Kind of test: Caspase-8 inhibitor screening assay (BioVision kit, IETD-AFC). To be noted: for inhibition at 10 µM: read-out: % Inhibition at 10 uM Casp8; for inhibition at 100 µM: read-out: % Inhibition at 100 uM Casp8; for pIC50: read-out: IC50 Casp8. The method, boiled down: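 Each caspase cleaved its own AFC-labelled peptide substrate, and released AFC was read by fluorescence. % inhibition came from RFU against an uninhibited control.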

For test [6], the target named is T6, Caspase-9 (Homo sapiens, UniProt P55211).
T6 construct: purchased BioVision K159-100
T6 sequence (P55211 1-315 limits assumed): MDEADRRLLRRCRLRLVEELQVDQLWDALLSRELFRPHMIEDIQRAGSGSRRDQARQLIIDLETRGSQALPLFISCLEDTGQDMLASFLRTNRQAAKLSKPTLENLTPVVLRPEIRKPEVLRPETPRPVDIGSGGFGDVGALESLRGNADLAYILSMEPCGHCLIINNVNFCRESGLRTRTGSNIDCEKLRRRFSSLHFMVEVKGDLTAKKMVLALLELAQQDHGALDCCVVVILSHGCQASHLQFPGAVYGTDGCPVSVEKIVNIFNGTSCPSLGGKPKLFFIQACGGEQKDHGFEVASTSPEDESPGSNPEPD
T6 sequence (P55211 331-416 limits assumed): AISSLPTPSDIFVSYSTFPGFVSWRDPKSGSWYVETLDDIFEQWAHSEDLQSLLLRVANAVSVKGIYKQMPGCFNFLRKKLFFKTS
Kind of test: Caspase-9 inhibitor screening assay (BioVision kit, LEHD-AFC). As to conditions: for inhibition at 10 µM: read-out: % Inhibition at 10 uM Casp9; for inhibition at 100 µM: read-out: % Inhibition at 100 uM Casp9; for pIC50: read-out: IC50 Casp9. The procedure, abridged:
as §1

T5 sequence (Q14790 217-374 limits assumed): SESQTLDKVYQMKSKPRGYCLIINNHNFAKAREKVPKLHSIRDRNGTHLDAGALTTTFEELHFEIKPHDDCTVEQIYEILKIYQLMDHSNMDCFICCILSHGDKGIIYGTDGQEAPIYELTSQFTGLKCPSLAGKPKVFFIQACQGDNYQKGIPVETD
T5 sequence (Q14790 385-479 limits assumed): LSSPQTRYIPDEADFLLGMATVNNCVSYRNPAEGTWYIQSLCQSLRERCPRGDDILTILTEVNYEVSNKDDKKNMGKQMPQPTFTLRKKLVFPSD

Regarding `CS(=O)(=O)/C=C/[C@H](CC(=O)O)NC(=O)[C@H]1CCCN1C(=O)[C@@H](NC(=O)[C@H](CC(=O)O)NC(=O)OCc1ccccc1)c1ccccc1` [Compound 30, Z-Asp-Phenylglycine-Pro-Asp-methyl vinyl sulfone], the inhibition (as a rule, the percentage by which the read-out fell short of the control) at 10 µM was found to be 55% in test [1]; 11% in test [2]; 68% in test [3]; 68% in test [4]; 22% in test [5]; 48% in test [6]. In addition, the inhibition at 100 µM was 92% in test [1]; 66% in test [2]; 95% in test [3]; 97% in test [4]; 79% in test [5]; 92% in test [6]. Also, the pIC50 – broadly, the IC50 on a negative log10 scale, so that one unit is a factor of ten – is 5.10 in test [1]; 4.27 in test [2]; 5.47 in test [3] (read-out: IC50 Casp3); 5.47 in test [3] (read-out: potency (IC50) against caspase-3); 5.21 in test [4]; 4.49 in test [5]. Also, in test [6], the pIC50 is 4.97.

As for `CC(C)(C)[C@@H](NC(=O)[C@H](CC(=O)O)NC(=O)OCc1ccccc1)C(=O)N1CC[C@@H]1C(=O)N[C@H](/C=C/S(C)(=O)=O)CC(=O)O` [Compound 32, Z-Asp-t-Leu-(Azetidine-2-carbonyl)-Asp-methyl vinyl sulfone], the inhibition at 10 µM is 44% in test [1]; 43% in test [2]; 96% in test [3]; 97% in test [4]; 69% in test [5]; 91% in test [6]. The inhibition at 100 µM in test [1] stood at 86%; in test [2], 86%; in test [3], 100%; in test [4], 100%; in test [5] it was 98%; in test [6] it was 100%. The pIC50 in test [1] was 4.88; in test [2], 4.88; in test [3] (read-out: IC50 Casp3) it was 6.55; in test [4] it was 6.26; in test [5], 5.39; in test [6], 5.95. Moreover, the “potency against caspase-3 relative to compound 26, in words” value in test [3] (replacement of Pro at P2 of compound 26) is reported as “did not affect the potency against caspase-3”.

`CC(C)[C@H](NC(=O)[C@H](Cc1cn(C)c2ccccc12)NC(=O)[C@H](CC(=O)O)NC(=O)OCc1ccccc1)C(=O)N[C@H](/C=C/S(C)(=O)=O)CC(=O)O` [Compound 36, Z-Asp-Trp(N-Me)-Val-Asp-methyl vinyl sulfone]: the inhibition at 10 µM worked out at 75% in test [1]; 0% in test [2]; 98% in test [3]; 95% in test [4]; 0% in test [5]; 39% in test [6]. The inhibition at 100 µM was 94% in test [1]; 19% in test [2]; 100% in test [3]; 99% in test [4]; 33% in test [5]; 87% in test [6]. For the same compound, the pIC50 in test [1] was 5.42; in test [2], below 4.00; in test [3] (read-out: IC50 Casp3), 7.05; in test [4], 6.07; in test [5], below 4.00; in test [6], 4.77.

On to `CCC(C)[C@H](NC(=O)[C@H](CCC(=O)O)NC(=O)[C@@H](NC(=O)OCc1ccccc1)C(C)C)C(=O)N[C@H](/C=C/S(C)(=O)=O)CC(=O)O` (stereo partly drawn) [Compound 38, Z-Val-Glu-Ile-Asp-methyl vinyl sulfone], for which the inhibition at 10 µM amounted to 81% in test [1]; 2% in test [2]; 63% in test [3]; 0% in test [4]; 97% in test [5]; 82% in test [6]. Also, the inhibition at 100 µM in test [1] was 97%; in test [2], 4%; in test [3], 89%; in test [4], 31%; in test [5], 100%; in test [6] it was 97%. Also, the pIC50 in test [1] was 5.57; in test [3] (read-out: IC50 Casp3), 5.16; in test [5] it was 6.18; in test [6] it was 6.10.
